According to patent US6620805B1, “Delivery of nucleic acids by porphyrins” (Yale University, priority 1996, dated 2003):
Read-outs that look alike come from different tables or passages of the source.

How the values were obtained:
HepG2 2.2.15 cells [1] = conditions: 5 μg oligo A, 4 h; for cellular delivery compared with TMP: 0-300 μg porphyrin
Experimental: HepG2 2.2.15 cells were set up in 96 well plates as above. […] Complexes were added to the cultures and incubated at 37° C. for 4 h. The monolayers were washed three times with PBS and cells were lysed and counted as previously described.

oligo A [2] = experiment: Carboxymethyl (CM) ion exchange column binding of labelled oligo to cationic porphyrin; conditions: for porphyrin required for complete binding (saturation) of 60 μg oligo: 60 μg oligo A, 150 mM NaCl, 30 min room temperature, column binding assay
hepatoma cells = experiment: Timecourse of binding/uptake of TMP-delivered oligo to hepatoma cells; type: cell-based, human; conditions: 30 μg TMP and 10 μg oligo A
Experimental: A timecourse experiment was carried out to determine the kinetics of binding/uptake of TMP-delivered oligonucleotides to hepatoma cells. […] A control timecourse was prepared without a delivery vehicle. Nucleic acids were recovered from one set of wells and were purified and analysed as described above.

HepG2 2.2.15 = conditions: TMP concentration; 700 nM TMP: 100 nM EGS; daily treatments for 5 days
Experimental: The human hepatoma cell line HepG2 2.2.15 containing four copies of the HBV genome was used in this study. Cells were plated out (2×10^4/well) into 96 well plates and left for 5 days until confluent. […] The various dilutions were added to the cell monolayers (6 replicates per concentration). Daily treatments were carried out for 5 days changing the medium each day. After the fifth day cell culture supernatant was removed and assayed for extracellular HBV DNA levels by dot-blot using the method of Korba B. E. and Gerin J. L. (Use of a standardized cell culture assay to assess activities of nucleoside analogs against Hepatitis B virus replication. (1992) Antiviral Research 19, 55-70).

9.5 kbp plasmid = conditions: 20 μg 9.5 kbp plasmid, 500 μg TMP
HBV = experiment: Anti HBV activity in cell culture (extracellular HBV DNA by dot-blot); type: cell-based, Hepatitis B virus; conditions: TMP concentration corresponding to 100 nM EGS
HepG2 2.2.15 cells [3] = experiment: Influence of serum on TMP delivery of EGS; type: cell-based, human; conditions: 30 μg TMP with 5 μg oligo A; 0, 4% or 10% serum; 4 h and 24 h
Experimental: Ninety-six well plates were set up as described above and allowed to grow until 80% confluence. Six replicate wells for each variable were washed twice with PBS. OPTI MEM (0 serum), 4% FCS in RPMI or 10% FCS in RPMI was added to the appropriate wells.
Oligo A was radiolabelled as above. These complexes were added to the wells (in replicates of 6) and after 4 h and 24 h the monolayers were washed 3 times with PBS. Cells were lysed as above and radioactivity counted.

oligo A [4] = conditions: 2.4 μg TMP, 150 mM NaCl
Excerpt: The interaction of nucleic acids with water soluble porphyrins can easily be followed by measuring the absorbance spectrum of the porphyrin in the range 350-450 nm. Porphyrins have a characteristic Soret peak in this wavelength range. […] Spectra were taken over the range 300-500 nm and the wavelength of the Soret peak plotted against the mass of EGS.

[5] = 200 μg oligo A with 100 μg TMP
Experimental: After 8 h and 24 h mice were sacrificed and their livers quickly immersed in OCT medium (Tissue-Tek) and frozen in liquid N2. Thin sections were cut and sections were mounted on glass slides. Localisation of EGS in the liver section was determined by hybridisation of a ^33P-labelled antisense oligonucleotide complementary to the EGS sequence, and overlaying with a photographic emulsion. Background hybridisation was determined using a ^33P-labelled oligo with the same sequence as the EGS.

HepG2 2.2.15 cells [6] = experiment: Delivery of TMP-complexed oligo to hepatoma cells in culture (cell-associated radioactivity); type: cell-based, human
Experimental: The complexed oligo was delivered to the cell cultures (6 replicates per variable), samples were removed for measurement of delivered radioactivity cpm and the cultures were returned to a 37° C. incubator for 4 h. Cultures were washed three times with 100 μl PBS and cells were lysed with SDS lysis buffer for extraction of nucleic acids (0.5% SDS, 10 mM Tris HCl pH 7.4, 10 mM EDTA, 10 mM NaCl, […] proteinase K). Lysates were counted to determine cell-associated radioactivity and nucleic acids were extracted from the lysate by phenol-chloroform treatment and ethanol precipitation.

[7] = 100 or 200 μg TMP with 100 μg oligo
Experimental: An internally-labelled Oligo A was prepared by kinasing a component oligo with ^33P ATP and ligating this shorter oligo to another short component cold oligo to form the full-length version. […] After 2 h and 24 h the mice were killed by cervical dislocation, weighed and their livers removed. Livers were weighed, homogenized and a small sample counted by liquid scintillation counting.

HepG2 2.2.15 cells [8] = experiment: Fluorescence microscopy of delivered fluorescent oligo; type: cell-based, human; conditions: 100 μg fluorescent oligo, with 100 μg TMP or free, 1.5 h and 4 h
Experimental: A 30 mer oligo containing a 5′ fluorescein isothiocyanate molecule was synthesised, oligo C. Sterile glass coverslips were placed into the wells of 6-well plates and HepG2 2.2.15 cells were seeded into the wells at 5×10^4 cells/well. […] After 1.5 h and 4 h the coverslips were removed from the wells, dipped five times in PBS to remove excess oligo and were fixed in 4% formaldehyde in PBS. The coverslips were mounted in Slowfade (Molecular Probes, Inc.), and viewed on a Nikon Diaphot fluorescence microscope.

Compound: C[N+](C)(C)c1ccc(-c2c3nc(c(-c4ccc([N+](C)(C)C)cc4)c4ccc([nH]4)c(-c4ccc([N+](C)(C)C)cc4)c4nc(c(-c5ccc([N+](C)(C)C)cc5)c5ccc2[nH]5)C=C4)C=C3)cc1 [TMA, meso tetra(trimethyl anilinium)porphine]
- cellular delivery compared with TMP (HepG2 2.2.15 cells [1]): never as great as the TMP analogues
- porphyrin amount giving maximal nucleic acid uptake (HepG2 2.2.15 cells [1]): 11 µg
- porphyrin required for complete binding (saturation) of 60 μg oligo (oligo A [2]): approximately 100 μg

Compound: C[n+]1ccc(-c2c3nc(c(-c4cc[n+](C)cc4)c4ccc([nH]4)c(-c4cc[n+](C)cc4)c4nc(c(-c5cc[n+](C)cc5)c5ccc2[nH]5)C=C4)C=C3)cc1.Cc1ccc(S(=O)(=O)[O-])cc1.Cc1ccc(S(=O)(=O)[O-])cc1.Cc1ccc(S(=O)(=O)[O-])cc1.Cc1ccc(S(=O)(=O)[O-])cc1 [TMP, Meso-tetra(N-methyl-4 pyridyl)porphine Tetra Tosylate]
- oligo cell-associated (hepatoma cells; 8 h timepoint): greater than 75%
- change in cell-associated material after 24 h (hepatoma cells; 24 h): reduction in the material cell-associated
- concentration showing no toxicity (HepG2 2.2.15): less than 700 nM
- plasmid bound to TMP (9.5 kbp plasmid): 5 µg
- antiviral activity of TMP (HBV): highly antiviral
- porphyrin required for complete binding (saturation) of 60 μg oligo (oligo A [2]): 60 µg
- stoichiometry of oligo:TMP at saturation (oligo A [2]; 30 mer oligo, charge neutralisation): 4 molecules of oligo interact with 29 molecules of TMP
- material cell-associated (HepG2 2.2.15 cells [3]): 50-70%
- mass of oligo at saturation (Soret peak reached 440 nm) (oligo A [4]): approximately 3 μg
- hepatic EGS levels over time (100 μg EGS with 20 μg TMP per mouse (lower TMP dose)): declined slightly over time
- hepatic EGS levels over time (100 μg EGS with 100 μg TMP per mouse (higher TMP dose)): gradually increased
- EGS level in kidney over time (100 μg EGS with 100 or 20 μg TMP per mouse, 2-72 h): rapid initial peak in the kidney which declined over 72 h
- EGS levels in spleen, fat and serum (100 μg EGS with TMP, mice): negligible
- enhancement with the higher TMP level (100 versus 20 μg TMP, same amount of EGS): two-fold
- liver toxicity (mice, 100 μg EGS with 100 or 20 μg TMP): No liver toxicity was detected
- hybridisation signal in liver after 24 h ([5]; 24 h): level of signal is reduced after 24 h
- intrahepatic distribution of EGS ([5]; tail vein, mice): substantial EGS present in all hepatocytes
- oligo delivered (HepG2 2.2.15 cells [6]; 1 μg delivered dose of oligo, 4 h): 0.5 µg
- oligo delivered (HepG2 2.2.15 cells [6]; 5 μg delivered dose of oligo, 4 h): 2.8 µg
- oligo delivered (HepG2 2.2.15 cells [6]; 10 μg delivered dose of oligo, 4 h): 4.8 µg
- TMP amount at saturation of binding or uptake (HepG2 2.2.15 cells [6]; 1, 5 or 10 μg oligo A, 4 h): 30 µg
- maximum oligo cell associated (HepG2 2.2.15 cells [6]; 3×10^4 cells): 4 to 5 µg
- added dose cell-associated (HepG2 2.2.15 cells [6]; all oligo doses, 4 h): Approximately 50%
- persistence of delivered oligo in the liver [7]: persisted for 24 h
- tolerability in mice ([7]; tail vein): well tolerated
- intracellular location of fluorescence (HepG2 2.2.15 cells [8]): All nuclei of the cells in the TMP-delivered fluorescent oligo cultures appeared brightly fluorescent

Compound: Fe(III)-tetra-(N-methyl-4-pyridyl)-porphyrin chloride [Fe TMP]
- cellular delivery compared with TMP (HepG2 2.2.15 cells [1]): does not affect cellular delivery by TMP up to a level of 30 μg
- porphyrin amount giving maximal nucleic acid uptake (HepG2 2.2.15 cells [1]): 30 µg
- influence of chelated Fe atom on nucleic acid binding (oligo A [2]; compared with TMP): behaved no differently than TMP alone
